Values quoted from earlier work, collected in patent publication US7714131B2, “Process for the stereoselective preparation of (−)-halofenate and derivatives thereof” (Metabolex, Inc., priority 2005, dated 2010).

Target: cytochrome P450 2C9 (Homo sapiens, UniProt P11712)
Conditions: compared to the (+)-enantiomer of halofenic acid

Sequence of cytochrome P450 2C9 (P11712 whole entry): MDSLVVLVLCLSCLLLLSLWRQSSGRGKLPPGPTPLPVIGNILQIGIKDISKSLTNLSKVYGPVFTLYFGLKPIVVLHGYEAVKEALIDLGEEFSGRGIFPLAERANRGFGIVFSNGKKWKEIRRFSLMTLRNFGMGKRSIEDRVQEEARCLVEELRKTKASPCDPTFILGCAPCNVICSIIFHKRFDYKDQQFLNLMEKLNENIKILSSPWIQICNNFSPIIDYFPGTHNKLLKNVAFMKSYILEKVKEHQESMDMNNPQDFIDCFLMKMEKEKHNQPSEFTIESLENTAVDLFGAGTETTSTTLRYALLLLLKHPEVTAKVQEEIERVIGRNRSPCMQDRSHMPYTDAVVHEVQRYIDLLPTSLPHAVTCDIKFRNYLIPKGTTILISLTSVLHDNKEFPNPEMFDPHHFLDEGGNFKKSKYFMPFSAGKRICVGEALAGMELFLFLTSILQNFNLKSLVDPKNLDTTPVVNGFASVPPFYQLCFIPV

ability to inhibit cytochrome P450 2C9, relative activity: about twenty-fold less active
SMILES: O=C(O)C(Oc1cccc(C(F)(F)F)c1)c1ccc(Cl)cc1 (single isomer, unassigned; (-)) [(−)-enantiomer of halofenic acid, (4-chlorophenyl)(3-trifluoromethylphenoxy)acetic acid]
